The target of the assay is T1, Mtb dihydrofolate reductase (DHFR) (Mycobacterium tuberculosis, UniProt P9WNX1).
T1 construct: gene folA; recombinant, 6-histidine tag at the amino terminus
T1 sequence (P9WNX1 1-161): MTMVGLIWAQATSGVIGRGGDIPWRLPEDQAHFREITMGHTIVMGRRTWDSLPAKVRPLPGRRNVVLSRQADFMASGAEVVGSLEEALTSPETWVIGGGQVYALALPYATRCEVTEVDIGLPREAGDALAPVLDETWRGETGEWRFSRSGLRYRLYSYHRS
Type of assay: biochemical.

In the case of `Nc1nc(N)c2cc(C(F)(F)F)ccc2n1` [NC00094221], the IC50 came out at 22.4 nM.

As a reminder, the IC50 is the concentration needed to halve the response being measured.

These data come from publication PMC3386958, “High-throughput Screening and Sensitized Bacteria Identify an M. tuberculosis Dihydrofolate Reductase Inhibitor with Whole Cell Activity” (PLoS ONE, 2012).
